Results published in patent US11752117B2, “Methods and compositions for diagnosing and treating glaucoma” (priority 2017, dated 2023).

Experiments:
rabbits = assay: Effect of KATP channel blockers and openers on intraocular pressure in rabbits; assay type: in vivo; settings: 800 μg of blockers, within 1 hour
From the text: Tolbutamide, a well-known and world-wide clinically approved drug to treat Type II diabetes, was used as the prototype blocker of the KATP channel. […] Tolbutamide solution decreased IOP not only in glaucomatous patients, but also in patients with elevated IOP after cataract surgery.

[1] = system: human trabecular meshwork cell; assay: 86Rb efflux from human trabecular meshwork cells; assay type: cell-based
From the text: FIG. 3 depicts, in accordance with embodiments herein, effect of glybenclamide on the efflux of ^86Rb from human trabecular meshwork cell.
FIG. 4 depicts, in accordance with embodiments herein, effect of chlorpromazine on the efflux of ^86Rb from human trabecular meshwork cell.

[2] = system: sulfonylurea receptor in trabecular meshwork cells; assay: 3H-glibenclamide binding and displacement, bovine trabecular meshwork cells; settings: on ice, 2 hrs incubation
Procedure: FIG. 1 depicts, in accordance with embodiments herein, binding of ^3H-glibenclamide to bovine trabecular meshwork cells (2.5×10^5 per 0.5 ml of reaction mixture) at various concentrations of ligand. Red: non-specific binding; green: specific binding. Shown is mean±SD.
FIG. 2 depicts, in accordance with embodiments herein, displacement of ^3H-glibenclamide bound to trabecular meshwork cells (green) and RIN-m5F cells (red) by tolbutamide.
Non-specific binding was determined as the residual binding in the presence of 20 μM non-labeled glibenclamide. After 2 hrs incubation, ^3H-bound glibenclamide was separated from free ^3H-glibenclamide on Whatman GF/F filters soaked in incubation buffer. Specific binding as calculated as the difference between binding in the absence and presence of non-labeled […] glibenclamide (FIG. 1).

Structure (SMILES)	effect on intraocular pressure (rabbits)	potassium efflux from trabecular meshwork cells as indicated by 86Rubidium efflux [1]	inhibition at 1 µM ([1]; Homo sapiens, at 1 μM, dose dependent)	binding of 3H-glibenclamide to trabecular meshwork cells [2]	inhibition at 0.01 µM ([1]; Homo sapiens, at 10 nM, dose dependent)
CC1=NS(=O)(=O)c2cc(Cl)ccc2N1 [diazoxide]	increased IOP significantly	–	–	–	–
Cc1ccc(S(=O)(=O)NC(=O)NN2CCCCCC2)cc1 [tolazamide]	decreased IOP	–	–	–	–
CN(C)CCCN1c2ccccc2Sc2ccc(Cl)cc21 [Chlorpromazine, chlorpromazine]	–	inhibit potassium efflux	20%	–	–
COc1ccc(Cl)cc1C(=O)NCCc1ccc(S(=O)(=O)NC(=O)NC2CCCCC2)cc1 [Glybenclamide, glibenclamide]	decreased IOP	inhibit potassium efflux	–	have a receptor for glybenclamide	50%
CCCNC(=O)NS(=O)(=O)c1ccc(Cl)cc1 [chlorpropanamide]	decreased IOP	–	–	–	–
